Source: US12565485B2, “Solid forms of 1-((S)-4-((R)-7-(6-amino-4-methyl-3-(trifluoromethyl)pyridin-2-yl)-6-chloro-8-fluoro-2-(((s)-1-methylpyrrolidin-2-yl)methoxy)quinazolin-4-yl)-3-methylpiperazin-1-yl)prop-2-en-1-one” (Genentech, Inc., priority 2022, dated 2026)

Columns and labels:
Slow evaporation = format: physicochemical
Experimental: Slow evaporation. Slow evaporation experiments were performed under 10 conditions. Briefly, about 15˜20 mg of freebase starting material (810935-01-A) was dissolved in 0.5˜1.0 mL of solvent in a 3-mL glass vial.
Slow evaporation Compound A. Slow evaporation experiments were performed under seven conditions.

[1] = Slurry conversion experiments (XRPD of isolated solids); format: physicochemical
Experimental: Slurry conversion experiments were conducted at RT in different solvent systems. About 15˜20 mg of freebase starting material (Compound 1) was suspended in 0.5 mL of solvent in an HPLC vial. Solids were isolated for XRPD analysis after magnetically stirring at RT.
Slurry at 5°. Slurry conversion experiments were conducted at 5° C. in different solvent systems. About 15˜20 mg of freebase starting material (Compound 1) was suspended in 0.5 mL of solvent in an HPLC vial. Solids were isolated for XRPD analysis after magnetically stirring at 5° C.
Slurry at 50°. Slurry conversion experiments were conducted at 50° C. in different solvent systems. About 20 mg of freebase starting material (Compound 1) was suspended in 0.5 mL of solvent in an HPLC vial. Solids were isolated for XRPD analysis after magnetical stirring at 50° C.
Slurry at RT for Compound A. Slurry conversion experiments were conducted at RT in different solvent systems. […] Solids were isolated for XRPD analysis after magnetic stirring at RT.
Slurry at 50° for Compound A. Slurry conversion experiments were conducted at 50° C. in different solvent systems. […] Solids were isolated for XRPD analysis after magnetic stirring at 50° C.

Liquid vapor diffusion = format: physicochemical
Experimental: Liquid vapor diffusion. Liquid vapor diffusion experiments were conducted in different solvent systems. […] This solution was then placed into a 20-mL vial with 3 mL of corresponding anti-solvent. The 20-mL vial was sealed with a cap and kept at RT allowing sufficient time for organic vapor to interact with the solution. The precipitates were isolated for XRPD analysis.
Liquid vapor diffusion Compound A. Liquid vapor diffusion experiments were conducted in different solvent systems. […] This solution was then placed into a 20-mL vial with 3 mL of corresponding anti-solvent. The 20-mL vial was sealed with a cap and kept at RT allowing sufficient time for organic vapor to interact with the solution. The precipitates were isolated for XRPD analysis.

Anti-solvent addition = format: physicochemical
Experimental: Anti-solvent addition. A total of 12 anti-solvent addition experiments were carried out. […] The obtained precipitate was isolated for XRPD analysis.
Anti-solvent addition Compound A. A total of 14 anti-solvent addition experiments were carried out. […] The obtained precipitate was isolated for XRPD analysis.

[2] = Summary of polymorph screening experiments, total over all methods; format: physicochemical
Experimental: A total of 64 polymorph screening experiments were performed for freebase Compound 1 using the sample received as starting material through different crystallization methods. As a result, Form A was obtained from polymorph screening.
Results summarized in Table 40 were used to guide the solvent selection in polymorph screening of adipate.

[3] = Overall summary of solid form stability; settings: compared with the other identified salt forms
Excerpt: Overall Summary. […] The amorphous form is considered for development purposes to be unstable for further development.

[4] = VH-XRPD analysis / transitions of forms at varying relative humidity; format: physicochemical
Excerpt: FIG. 19. The sample then reverts to the original form upon reaching 30% RH. […] Transitions of Forms of Compound A at varying RH.

Slow cooling = format: physicochemical; settings: adipate polymorph screening summary; Slow Cooling
Experimental: Slow cooling Compound A. Slow cooling experiments were conducted in four solvent systems. […] The suspension was then heated to 50° C., equilibrated for about 2 hr and filtered to a new vial using a seal membrane (PTFE, pore size of 0.45 μm). Filtrates were slowly cooled down to 5° C. at a rate of 0.1° C./min. The obtained solids were kept isothermal at 5° C. before isolation for XRPD analysis.

Solid vapor diffusion = format: physicochemical; settings: adipate polymorph screening summary; Solid Vapor Diffusion
Experimental: Solid vapor diffusion Compound A. Solid vapor diffusion experiments were conducted using 12 different solvents. […] The 20-mL vial was sealed with a cap and kept at RT allowing solvent vapor to interact with the sample.

C=CC(=O)N1CCN(c2nc(OC[C@@H]3CCCN3C)nc3c(F)c(-c4nc(N)cc(C)c4C(F)(F)F)c(Cl)cc23)[C@@H](C)C1 (atropisomer, axis not shown) [Compound 1, 1-((S)-4-((R)-7-(6-amino-4-methyl-3-(trifluoromethyl)pyridin-2-yl)-6-chloro-8-fluoro-2-(((S)-1-methylpyrrolidin-2-yl)methoxy)quinazolin-4-yl)-3-methylpiperazin-1-yl)prop-2-en-1-one]
Result (Slow evaporation; freebase polymorph screening summary, Slow Evaporation): Form A, amorphous, gel | Result (Slow evaporation; freebase, evaporation at RT, 2-MeTHF): Gel | Result (Slow evaporation; freebase, evaporation at RT, ACN): Form A | Result (Slow evaporation; freebase, evaporation at RT, Acetone): Form A | Result (Slow evaporation; freebase, evaporation at RT, DCM): Form A (Low crystallinity) | Result (Slow evaporation; freebase, evaporation at RT, EtOAc): Amorphous | Result (Slow evaporation; freebase, evaporation at RT, EtOH): Form A | Result (Slow evaporation; freebase, evaporation at RT, IPAc): Gel | Result (Slow evaporation; freebase, evaporation at RT, MEK): Amorphous | Result (Slow evaporation; freebase, evaporation at RT, MeOH): Amorphous | Result (Slow evaporation; freebase, evaporation at RT, THF): Amorphous | Slurry conversion result (XRPD form) ([1]; 5° C., different solvent systems): Form A and amorphous were obtained | Slurry conversion result (XRPD form) ([1]; 50° C., H2O): Amorphous | Slurry conversion result (XRPD form) ([1]; 50° C., different solvent systems): amorphous was obtained | Slurry conversion result (XRPD form) ([1]; 50° C., n-Heptane): Amorphous | Slurry conversion result (XRPD form) ([1]; RT, different solvent systems): Form A and amorphous were obtained | Result ([1]; freebase polymorph screening summary, Slurry at RT/5 °C/50 °C): Form A, amorphous, gel, | Result ([1]; freebase slurry at 5° C., 2-MeTHF/n-Heptane, 1:3): Gel | Result ([1]; freebase slurry at 5° C., ACN): Form A | Result ([1]; freebase slurry at 5° C., DMAc/n-Heptane, 1:3): Gel | Result ([1]; freebase slurry at 5° C., DMF/H2O, 1:3): Amorphous | Result ([1]; freebase slurry at 5° C., Ethyl lactate/H2O, 1:3): Gel | Result ([1]; freebase slurry at 5° C., IPAc/n-Heptane, 1:3): Amorphous | Result ([1]; freebase slurry at 5° C., MIBK/n-Heptane, 1:3): Gel | Result ([1]; freebase slurry at 5° C., NMP/H2O, 1:4): Amorphous | Result ([1]; freebase slurry at 5° C., Xylene/n-Heptane, 1:3): Amorphous | Result ([1]; freebase slurry at RT, 1,4-Dioxane/H2O, 1:4): Amorphous | Result ([1]; freebase slurry at RT, ACN): Form A | Result ([1]; freebase slurry at RT, ACN/H2O, 1:1): Form A (Low crystallinity) | Result ([1]; freebase slurry at RT, Acetone/H2O, 1:4): Form A | Result ([1]; freebase slurry at RT, Anisole/n-Heptane, 1:4): Gel | Result ([1]; freebase slurry at RT, Benzyl alcohol/n-Heptane, 1:4): Gel | Result ([1]; freebase slurry at RT, CPME/Cyclohexane, 1:4): Amorphous | Result ([1]; freebase slurry at RT, DCM/n-Heptane, 1:4): Form A | Result ([1]; freebase slurry at RT, EtOAc/Cyclohexane, 1:4): Amorphous | Result ([1]; freebase slurry at RT, EtOH): Form A | Result ([1]; freebase slurry at RT, EtOH/H2O, 1:1): Form A | Result ([1]; freebase slurry at RT, IPA): Form A (Low crystallinity) | Result ([1]; freebase slurry at RT, MEK/Cyclohexane, 1:4): Amorphous | Result ([1]; freebase slurry at RT, MTBE): Gel | Result ([1]; freebase slurry at RT, THF/n-Heptane, 1:4): Form A | Result ([1]; freebase slurry at RT, Toluene/Cyclohexane, 1:4): Amorphous | Result (Liquid vapor diffusion; freebase polymorph screening summary, Liquid Vapor Diffusion): Form A, amorphous, gel, clear | Result (Liquid vapor diffusion; freebase, RT, solvent 1.4-Dioxane, anti-solvent n-Heptane): Gel | Result (Liquid vapor diffusion; freebase, RT, solvent 2-Butanol, anti-solvent n-Heptane): Gel | Result (Liquid vapor diffusion; freebase, RT, solvent ACN, anti-solvent H2O): Form A | Result (Liquid vapor diffusion; freebase, RT, solvent Acetone, anti-solvent n-Pentane): Form A | Result (Liquid vapor diffusion; freebase, RT, solvent Anisole, anti-solvent n-Pentane): Gel | Result (Liquid vapor diffusion; freebase, RT, solvent CPME, anti-solvent n-Pentane): Gel | Result (Liquid vapor diffusion; freebase, RT, solvent DMF, anti-solvent H2O): Clear solution | Result (Liquid vapor diffusion; freebase, RT, solvent DMSO, anti-solvent H2O): Amorphous | Result (Liquid vapor diffusion; freebase, RT, solvent EtOAc, anti-solvent n-Pentane): Gel | Result (Liquid vapor diffusion; freebase, RT, solvent IPAc, anti-solvent n-Heptane): Amorphous | Result (Liquid vapor diffusion; freebase, RT, solvent THF, anti-solvent H2O): Form A (Low crystallinity) | Result (Liquid vapor diffusion; freebase, RT, solvent Toluene, anti-solvent n-Heptane): Gel | Result (Liquid vapor diffusion; freebase, RT, solvent Xylene, anti-solvent n-Pentane): Gel | Result (Anti-solvent addition; freebase polymorph screening summary, Anti-solvent Addition): Form A, amorphous, gel, | Result (Anti-solvent addition; freebase, solvent 1.4-Dioxane, anti-solvent H2O): Gel | Result (Anti-solvent addition; freebase, solvent ACN, anti-solvent n-Heptane): Form A (Low | Result (Anti-solvent addition; freebase, solvent Acetone, anti-solvent n-Heptane): Form A (Low | Result (Anti-solvent addition; freebase, solvent Anisole, anti-solvent Cyclohexane): Gel | Result (Anti-solvent addition; freebase, solvent CPME, anti-solvent n-Heptane): Amorphous | Result (Anti-solvent addition; freebase, solvent DCM, anti-solvent Cyclohexane): Form A (Low | Result (Anti-solvent addition; freebase, solvent DMSO, anti-solvent H2O): Low crystallinity | Result (Anti-solvent addition; freebase, solvent EtOAc, anti-solvent n-Heptane): Amorphous | Result (Anti-solvent addition; freebase, solvent MEK, anti-solvent Cyclohexane): Gel | Result (Anti-solvent addition; freebase, solvent MeOH, anti-solvent H2O): Amorphous | Result (Anti-solvent addition; freebase, solvent THF, anti-solvent H2O): Form A (Low | Result (Anti-solvent addition; freebase, solvent Toluene, anti-solvent n-Heptane): Amorphous | Result ([2]; freebase polymorph screening summary): Form A, amorphous, gel, clear

C=CC(=O)N1CCN(c2nc(OC[C@@H]3CCCN3C)nc3c(F)c(-c4nc(N)cc(C)c4C(F)(F)F)c(Cl)cc23)[C@@H](C)C1 [Compound A]
Stability of the form for further development [3]: most stable form | RH at which sample reverts to the original form (VH-XRPD) [4]: 30 % RH | RH at which small changes appear in VH-XRPD ([4]; changes remain up until 80% RH): 44-46 % RH

C=CC(=O)N1CCN(c2nc(OC[C@@H]3CCCN3C)nc3c(F)c(-c4nc(N)cc(C)c4C(F)(F)F)c(Cl)cc23)[C@@H](C)C1.O=C(O)CCCCC(=O)O [adipate]
Result (Slow evaporation; adipate polymorph screening summary, Slow Evaporation): Gel, clear | Result ([1]; adipate polymorph screening summary, Slurry at RT/50° C.): Compound A Form A, gel, clear | Result (Slow cooling): Compound A Form A | Result (Liquid vapor diffusion; adipate polymorph screening summary, Liquid Vapor Diffusion): Amorphous, clear, gel | Result (Anti-solvent addition; adipate polymorph screening summary, Anti-solvent Addition): Compound A Form A, B, clear, gel | Result ([2]; adipate polymorph screening summary): Compound A Form A, Compound A Form | Result (Solid vapor diffusion): Compound A Form A
